Results: patent US20260272916A1, “RADIATION SENSITIVITY ENHANCING COMPOSITION CONTAINING ARIPIPRAZOLE AS ACTIVE INGREDIENT” (KOREA INSTITUTE OF RADIOLOGICAL & MEDICAL SCIENCES, priority 2018, published 2026)

Key:
[1] = system: MCF-7 cells; assay: Drug library screen for radiation sensitizers, EZ-Cytox cell viability; type: cell-based, human; design: dose or concentration left out as unconfirmed; details: 96 hours, FIG. 1
Procedure: MCF-7 cells, a human breast cancer cell line, were adjusted to a concentration of 5000 cells/well, then inoculated into a 96 well plate and pre-cultured for 24 hours. Subsequently, the medium was removed, and each drug in Enzo's drug library at a concentration of […] was treated alone or in combination with radiation. After 96 hours, the survival rate of cells was measured by Dogen's EZ-Cytox Cell Viability Assay kit.

[2] = system: MCF-7 cells; details: 24 hours, FIG. 3
Procedure: The MCF-7 cells were treated with aripiprazole (1, 5, 10, 20 μM) alone or in combination with radiation. After 24 hours, after washing with PBS, proteins were extracted from the cells, and the degree of PARP cleavage was confirmed by Western blot.
(§1) After 24 hours, after washing with PBS, proteins were extracted from the cells, and the degree of PARP cleavage was confirmed by Western blot.
as §1

[3] = system: U251 cells; assay: DNA fragmentation, Cell Death Detection ELISA plus kit; type: cell-based; details: U251, combination with radiation vs single treatments, 24 hours, FIG. 4
Procedure: (§2) After the MCF-7 cells or U251 cells were adjusted to a concentration of 5000 cells/well, they were inoculated into a 96 well plate and pre-cultured for 24 hours. Thereafter, the medium was removed and aripiprazole was treated alone or in combination with radiation. After 24 hours, the degree of DNA fragmentation was confirmed using Roche's Cell Death Detection ELISA plus kit.

[4] = system: MCF-7 cells; assay: Cell viability at various aripiprazole concentrations alone or with radiation (EZ-Cytox); type: cell-based, human; details: 96 hours, FIG. 2
Procedure: In order to confirm the effect of aripiprazole on radiation sensitivity in cancer cells, a cell viability measurement experiment was performed in breast cancer cells having radiation resistance using the […] as follows. After the MCF-7 cells were adjusted to a concentration of 5000 cells/well, they were inoculated into a 96-well plate and pre-cultured for 24 hours. Thereafter, the medium was removed and aripiprazole ([…]) was treated alone or in combination with radiation. After 96 hours, the survival rate of cells was measured by Dogen's EZ-Cytox Cell Viability Assay kit.

[5] = system: MCF-7 cells; details: MCF-7, combination with radiation vs single treatments, 24 hours, FIG. 4
Procedure: as §2
(§3) After 24 hours, the degree of DNA fragmentation was confirmed using Roche's Cell Death Detection ELISA plus kit.
as §3

## O=C1CCc2ccc(OCCCCN3CCN(c4cccc(Cl)c4Cl)CC3)cc2N1 [aripiprazole, 7-{4-[4-(2,3-dichlorophenyl)-1-piperazinyl]-butoxy}-3,4-dihydro-2(1H)-quinolinone]
[1]; MCF-7, drug treatment alone
  survival rate of cells: no effect on the survival rate of cells
[1]; MCF-7, in combination with radiation
  survival rate of cells: lowers the survival rate of radiation-resistant cells
[2]; MCF-7, aripiprazole 1, 5, 10, 20 μM with radiation
  induction of apoptosis in radiation-treated cancer cells: induce apoptosis in radiation-treated cancer cells in a concentration-dependent manner
[2]; MCF-7, aripiprazole 1, 5, 10, 20 μM, combination with radiation vs alone
  PARP cleavage induction effect: more excellent when treated in combination with radiation than treated aripiprazole alone
[3]
  DNA fragmentation inducing effect: superior to the effect of adding up each treatment
[4]; MCF-7, aripiprazole 5, 10, 20 μM with radiation
  radiation sensitizing effect: excellent radiation sensitizing effect in a concentration-dependent manner
[4]; MCF-7, aripiprazole 5, 10, 20 µM, combination with radiation vs alone
  survival rate reduction effect: more excellent when treated in combination with radiation than the treatment with aripiprazole alone
[5]
  DNA fragmentation inducing effect: superior to the effect of adding up each treatment
